Entries after “also recorded” stand apart in the source; their conditions may differ.
Tests used:
rats [1] = test: Water maze: drug action on alprazolam-disrupted learning behavior in rats; format: in vivo, rat
Procedure: Rats (male 250 g b.w.) were trained two days, once a day, in maze A (See insert A). […] Rats were exposed to a new maze configuration (Maze B) in 4 successive trials 15, 30, 45, and 60 min after the i.p. injections.
The water maze apparatus was adapted from Kant et al., (16), and consists of three concentric squares placed inside a 5 ft plastic pool (FIG. 6). The walls of the maze are 50 cm in height and are constructed from black opaque plastic to allow for tracking of the animal with an overhead camera. The alleys between the walls are 16 cm wide. In the center of each wall there is a removable doorway. The opening of doorways allows for the construction of mazes with an increasing number of potential error possibilities. (See diagram for Maze A and Maze B, FIG. 6). The maze is located in a room 10'×15' at constant temperature (18° C.) adjacent to the vivarium. The room is illuminated with overhead lights which also serve as spatial cues. Additional spatial cues are provided by the position of the investigator and a number of small white x's placed within specific locations upon the walls of the maze. The maze is filled with water (18°)C. to a depth of 25 cm.
Seven days prior to drug studies, rats were tested in Maze A (forced maze) on two consecutive days. Pretesting with the "forced" maze enabled the assessment of the animals' general motor, sensory and motivational abilities, and facilitated the exclusion of those animals unable to meet pretesting criteria. Performance was assessed by determining either swim time, errors committed, or path length measured with a computerized recording device. Errors are defined as whole body entry into alleys not leading directly to the exit platform (i.e., shaded portions in FIG. 6). Rats were excluded from the study if their swim path length and/or number of errors were two standard deviations above the mean […] of the entire group. During the first two trials, the rats were placed into the center of the maze and given a maximum of 180 secs to find the "exit platform" located at the "finish" (FIG. 6). The time required, the number of errors, and the path length were recorded for each trial. […] Rats meeting the criteria were randomly divided into groups. On the day of the experiment, a single trial was run (Maze A) in order to establish a baseline of performance. Following drug administration, the rats were again tested once on Maze A to establish a baseline of post-treatment performance. Following an additional interatrial interval of 30 min., the rats were tested on Maze B.
In these experiments, rats were trained in Maze B 15, 30, 45 and 60 min. after drug injection.

Gross animal behavior = conditions: at effective doses
[2] = Entry into the brain (inferred from in vivo activity); conditions: inferred ("presumably") from in vivo activity or lack of it
rats [3] = test: Water maze: drug action on alprazolam-disrupted learning behavior in rats; format: in vivo, rat; conditions: oral 5 mg/kg
GABAA receptors = test: Preliminary electrophysiological and biochemical radiolabeled binding studies on GABAA receptors
Pacata monkeys = test: Preliminary experiments in Pacata monkeys: working memory; format: in vivo
From the text: The present IDRAcompounds are useful for enhancing both short-term memory, long-term memory, and cognitive performance in man. […]. As a result, the compounds of the present invention are useful as therapeutic agents in memory impairment, e.g., due to toxicant exposure, brain injury, epilepsy, mental retardation in children and senile dementia, including Alzheimer's disease.

[4] = test system: kainate-activated current; test: Selectivity: ionic current elicited by 20 μM kainate; format: cell-based, rat
Procedure: (§1) Young rats (12-16 days old) were decapitated and the brains quickly removed and placed in ice-cold Ringer solution. Thin slices of hippocampus (250 μm) were then cut with a vibratome slicer (Lancer, St. Louis, Mo.) and kept in Ringer solution at 37° C. until use. The experiments were carried out at room temperature with the slice totally submerged in a 1 ml volume recording chamber and under continuous perfusion with Ringer solution at a rate of 6 ml/min using an upright Hoffman modulation contrast microscope (Carl Zeiss, Germany) equipped with a 40×water immersion objective.
(§2) Media and drug application. The external Ringer solution contained (in mM): NaCl 120; KCl 3.1; CaCl2 2; MgCl2 1; KH2 PO4 1; NaHCO3 26; glucose 2.7; and it was continuously bubbled with 95% O2 and 5% CO2. Patch pipettes were filled with a solution containing (in mM): K-gluconate 140; MgCl2 1; ATP.Mg 2; EGTA 0.5; HEPES-KOH 10, pH 7.2. All the drugs under investigation were applied through the recording chamber perfusion system via parallel inputs having a common entry into the chamber. Agonist application was attained using two different systems that allowed a slow or a rapid solution change. Slow solution changes were used during recordings in whole-cell configuration and were obtained by exchanging the solution of the recording chamber within a few seconds. Fast solution changes were obtained with the use of the Y-shaped tubing method that allows complete exchange of solution in less than 10 ms, and is described in detail by Murase et al. (1989).
(§3) Ionic currents in whole-cell configuration and outside-out excised membrane patches were monitored using the patch clamp technique (15).

[5] = test system: EPSCs elicited in CAl pyramidal neurons; test: Excitatory postsynaptic currents (EPSCs) in CAl pyramidal neurons in hippocampal slices on stimulation of Schaffer collateral afferents; format: cell-based, rat; conditions: in vitro; compared with (+) IDRA 21
Procedure: as §1, §3
Traces were filtered at 3 KHz (-3 dB, 8-pole, lowpass Bessel filter, Frequency Devices), and stored in an LSI 11/73 computer (INDEC System, Sunnyvale, Calif.) after digitization (10 KHz) with a Data Translation analog to digital converter. Decay time constants of EPSC and glutamate-activated currents were determined from exponential fitting with the 11/73 system by using an entirely automated least-squares procedures (see Vicini and Schuetze, 1985, for further details). This method uses a Simplex algorithm (Caceci and Cacheris, 1984) to fit the data to either a single or double exponential equation of the form I(t)=If exp(-t/tauf)+Is exp(-t/taus), where If and Is are the amplitudes of the sIPSC fast and slow components, and tauf and taus are their respective decay time constants. Peak amplitudes were measured at the absolute maximum of the currents, taking into account the noise of the baseline and noise around the peak. Rise times were measured as the time elapsed from 20 to 80% of the peak amplitude of the response.
The action of nootropic drugs on the excitatory postsynaptic currents (EPSCs) elicited in CAl pyramidal neurons in hippocampal slices was investigated by stimulation of the Schaffer collateral afferents.

AMPA receptor = test: Fast application with double barrel pipette: AMPA receptor desensitization in outside-out patches from CAl hippocampal pyramidal neurons; format: cell-based, rat; conditions: comparison compound, lower dose than IDRA 21, concentration not given
Procedure: as §1, §2
Briefly, a polyethylene tubing (1 mm i.d.) is bent in a U-shaped, and another fine polyethylene tubing (50 μi.d.) and 10 mm length) is inserted into a small hole in the U-tubing making the tip of the Y-tubing. Solutions are fed to the Y-tubing by gravity, and negative pressure facilitates exchange of the solution. The tip of the Y-tubing is positioned 100 μm from the cell investigated, and upon opening and closing of a valve that controls the negative pressure, it was possible to respectively change rapidly and apply a number of different test solutions. This method was used to apply agonists to excised outside-out membrane patches. More rapid drug applications were used to apply agonists to excised outside-out membrane patches, and were obtained through a double-barrelled pipette positioned close to the recording pipette containing the membrane patch. […] The agonist was applied for a period of 150 ms and the time necessary for a complete exchange of the solution was less than 1 ms as measured at the opening of a patch pipette containing different dilutions of the drugs under study. […]
Ionic currents in whole-cell configuration and outside-out excised membrane patches were monitored using the patch clamp technique (15). […]

SMILES	disruptive action of alprazolam (rats [1]; discussion statement)	dose dependence of learning and memory enhancing effect (rats [1]; rat, in vivo)	duration of learning and memory enhancing effect (rats [1]; rat, in vivo)	biological activity of enantiomers (summary) (rats [1]; summary statement)	effect on gross animal behavior (exploratory behavior, stereotypy, ataxia, posture) (Gross animal behavior)	brain uptake [2]	potency vs racemate in preventing alprazolam-induced amnesia (rats [3])	prevention of alprazolam-induced amnesia (enantiomers) (rats [3])	direct action on GABAA receptors (GABAA receptors)	working memory enhancement (Pacata monkeys)	antagonism of alprazolam amnesic effect (rats [1]; doses equimolar to IDRA 21 / (+) IDRA 21)	effect on kainate-activated current ([4]; 40 μM compound, 20 μM kainate)	effect on kainate responses at doses that decreased AMPA desensitization ([4]; all doses that decrease/inhibit AMPA desensitization)	efficacy in increasing excitatory synaptic strength in CAl pyramidal neurons [5]	removal of glutamate-induced desensitization (AMPA receptor)
CC1Nc2ccc(Cl)cc2S(=O)(=O)N1 (single isomer, unassigned; (+)) [(+) IDRA 21]	antagonizes the disruptive action of alprazolam	dose-dependent	> 1 h	biologically active	no changes in exploratory behavior, stereotypy, ataxia, posture, etc.	taken up by the brain in a sufficient quantity to produce learning and memory enhancing effects	significantly more potent than (±) IDRA; also recorded: more potent that (±) IDRA 21	active in preventing alprazolam-induced amnesia in rats	fails to act directly on GABAA receptors	very potent in enhancing working memory					
NS(=O)(=O)c1cc2c(cc1Cl)NC(C1CC3C=CC1C3)NS2(=O)=O (stereo not shown) [cyclothiazide, reference compound]						fail to enter the brain					unable to antagonize alprazolam-induced impairment of learning behavior	increased the current	potently potentiated kainate responses	at least as efficacious as (+) IDRA 21	completely removed the desensitization induced by glutamate

Reference: patent US5488049A, “Method of treating learning and memory disorders using benzothiadiazide derivatives as nootropic agents” (FIDIA - Georgetown Institute for the Neuro-Sciences, priority 1993, dated 1996)
